For series [1], the system named is Trypanosoma cruzi. The experiment in a line: Antitrypanosomal activity against Trypanosoma cruzi. In kind it is functional, organism-based.
Series [2] concerns Leishmania panamensis. The experiment in a line: Antileishmanial activity against GFP-tagged Leishmania panamensis MHOM/CO/87/UA140 intracellular amastigotes infected in human U937 cells incubated for 72 hrs by flow cytometry. In kind it is functional, organism-based. To be noted: MHOM/CO/87/UA140, U-937, 72 h. (Flow cytometry measures light scatter and fluorescence of single cells or particles in a stream.)

For series [3], the system named is Trypanosoma cruzi. Nature of the series: Antitrypanosomal activity against Trypanosoma cruzi Tulahuen intracellular amastigotes transfected with beta-galactosidase infected in human U937 cells incubated for 72 hrs by spectrophotometry. In kind it is functional, organism-based. The following applies: U-937, 72 h.
A short description of series [4]: Selectivity index, ratio of LC50 for cytotoxicity in human U937 cells to EC50 for antitrypanosomal activity against Trypanosoma cruzi Tulahuen intracellular amastigotes transfected with beta-galactosidase infected in human U937 cells. In kind it is toxicity, cell-based.
Series [5] in a line: Cytotoxicity in human U937 cells assessed as reduction in cell viability incubated for 72 hrs by MTT assay. The following applies: read-out: LC50. In kind it is cell-based, U-937. Background: Tetrazolium dyes change colour on reduction, which living cells bring about.
Series [6] in a line: Selectivity index, ratio of LC50 for cytotoxicity in human U937 cells to EC50 for antileishmanial activity against GFP-tagged Leishmania panamensis MHOM/CO/87/UA140 intracellular amastigotes infected in human U937 cells. In kind it is toxicity, cell-based.
The subject of series [7] is Leishmania panamensis. Nature of the series: Antileishmanial activity against GFP-tagged Leishmania panamensis MHOM/CO/87/UA140 amastigotes infected in human U937 cells incubated for 72 hrs by flow cytometry. To be noted: MHOM/CO/87/UA140, U-937, 72 h. It is filed as functional, organism-based.
The nature of series [8]: Cytotoxicity in human U937 cells. In kind it is cell-based, U-937. To be noted: read-out: LC50 (the source's name).
The next series relates to Leishmania major. Nature of the series: Antileishmanial activity against Leishmania major promastigotes. It is filed as functional, organism-based.
Series [9] has as its system Leishmania panamensis. The experiment in a line: Antileishmanial activity against Leishmania panamensis axenic amastigotes. It is filed as functional, organism-based.
A further series has as its system Trypanosoma brucei. The experiment in a line: Antitrypanosomal activity against Trypanosoma brucei bloodstream forms. In kind it is functional.

≈ marks a conversion by molar mass, not a printed value.

Usually IC50 stands for the point on the concentration scale where inhibition reaches its midpoint. Low values mean higher potency, high ones lower potency. `O=C(/C=C/c1ccc(O)c(O)c1)O[C@@H]1[C@H](O)C[C@@](O)(C(=O)O)C[C@H]1OC(=O)/C=C/c1ccc(O)c(O)c1` gave an IC50 in the series on Trypanosoma cruzi [1] of 286 µM.
What is called EC50 is the concentration giving half of the maximal effect. On to `COc1ccc(/C=C/C(=O)OCCCCCCCOc2cc(Cl)ccc2Oc2ccc(Cl)cc2Cl)cc1OC`, for which the EC50 turned out to be 99 µM in the series on Leishmania panamensis [2] and 27.4 µM with Trypanosoma cruzi [3] (read-out: EC50). The figures for the selectivity ratio in [4] and in series [6] were above 12.3 and above 3.4, respectively. Moreover, in series [5], the CC50 at 72 h worked out at 337 µM.
With `O=C(/C=C/c1ccc(O)c(O)c1)OCCCOc1cc(Cl)ccc1Oc1ccc(Cl)cc1Cl`, the EC50 in the series with Leishmania panamensis [2] worked out at 24.3 µM; in the series on Trypanosoma cruzi [3] (read-out: EC50), 52.4 µM. Also, the figures for the selectivity ratio in series [4] and in series [6] were above 7.48 and above 16.1, respectively. Besides, the CC50 at 72 h in series [5] is above 392 µM.
Regarding `O=C(/C=C/c1ccc(O)c(O)c1)OCCCCCCCCOc1cc(Cl)ccc1Oc1ccc(Cl)cc1Cl`, the half-maximal effective concentration (EC50) with Leishmania panamensis [2] was 12.9 µM; in the series on Trypanosoma cruzi [3] (read-out: EC50), 18.4 µM. In addition, the selectivity ratio in [4] stood at 2.19; in series [6], 3.11. For the same molecule, the CC50 at 72 h in series [5] turned out to be 40.2 µM.
On to `COc1ccc(CCC(=O)OCCCOc2cc(Cl)ccc2Oc2ccc(Cl)cc2Cl)cc1OC`, for which the EC50 in the series with Leishmania panamensis [2] was found to be 40.2 µM; in the series on Trypanosoma cruzi [3] (read-out: EC50), 33.3 µM. Moreover, the selectivity ratio in series [4] came to 7.49; in [6], 6.2. Also, the CC50 at 72 h in series [5] was found to be 250 µM.
In turn, `COc1ccc(/C=C/C(=O)c2ccc(OCCCCOc3cc(Cl)ccc3Oc3ccc(Cl)cc3Cl)cc2)cc1OC` came in with an EC50 with Leishmania panamensis [7] of 10.2 µg/mL (≈ 16.2 µM). The CC50 in series [8] was above 200 µg/mL.
`COc1ccc(/C=C/C(=O)OCCCOc2cc(Cl)ccc2Oc2ccc(Cl)cc2Cl)cc1OC`: the EC50 was 38.1 µM in the series on Leishmania panamensis [2] and above 37.2 µM in the series on Trypanosoma cruzi [3] (read-out: EC50). Also, the selectivity ratio in series [4] is below 10; in series [6] it was above 9.77. The CC50 at 72 h in series [5] was above 372 µM.
Take `COc1ccc(/C=C/C(=O)c2ccc(OCCCCCOc3cc(Cl)ccc3Oc3ccc(Cl)cc3Cl)cc2)cc1OC`: the EC50 with Leishmania panamensis [7] amounted to 13.5 µg/mL (≈ 21 µM). In addition, in [8], the CC50 is above 200 µg/mL.
Regarding `O=C(/C=C/c1ccc(O)c(O)c1)OCCCCCOc1cc(Cl)ccc1Oc1ccc(Cl)cc1Cl`, the EC50 in the series on Leishmania panamensis [2] stood at 15.3 µM; in the series on Trypanosoma cruzi [3] (read-out: EC50), 29.7 µM. The selectivity ratio in series [4] is 0.28; in series [6] it was 0.53. Besides, the CC50 at 72 h in [5] amounted to 8.18 µM.
The matching figures for `O=C(/C=C/c1ccc(O)c(O)c1)OCCCCCCCCCOc1cc(Cl)ccc1Oc1ccc(Cl)cc1Cl`: 30.2 µM, 41.3 µM, 0.09, 0.12 and 3.62 µM.
Consider `O=C(/C=C/c1ccc(O)c(O)c1)OCCCCOc1cc(Cl)ccc1Oc1ccc(Cl)cc1Cl`, for which the 50% effective concentration (EC50) with Leishmania panamensis [2] stood at 3.82 µM; in the series with Trypanosoma cruzi [3] (read-out: EC50) it was 8.25 µM. For the same molecule, the selectivity ratio in series [4] was determined as 1.46; in series [6] it was 3.16. Moreover, the CC50 at 72 h in series [5] is 12 µM.
As to `COc1ccc(/C=C/C(=O)OCCCCOc2cc(Cl)ccc2Oc2ccc(Cl)cc2Cl)cc1OC`, the EC50 in the series on Leishmania panamensis [2] was 53.2 µM; in the series on Trypanosoma cruzi [3] (read-out: EC50), 42.8 µM. Further, the selectivity ratio in series [4] amounted to 1.72; in [6] it was 1.38. The CC50 at 72 h in series [5] was determined as 73.4 µM.
`O=C(/C=C/c1ccc(O)c(O)c1)OCCCCCCCOc1cc(Cl)ccc1Oc1ccc(Cl)cc1Cl`: the EC50 in the series on Leishmania panamensis [2] is 11.7 µM; in the series on Trypanosoma cruzi [3] (read-out: EC50), 8.69 µM. In addition, the selectivity ratio turned out to be 2.29 in series [4] and 1.72 in series [6]. Besides, the CC50 at 72 h in series [5] was 20 µM.
Consider `O=C(/C=C/c1ccc(O)c(O)c1)OCCCCCCCCCCCCOc1cc(Cl)ccc1Oc1ccc(Cl)cc1Cl`, for which the EC50 worked out at 42.6 µM in the series on Leishmania panamensis [2] and 34.2 µM in the series on Trypanosoma cruzi [3] (read-out: EC50). Besides, the selectivity ratio in [4] came to 5.08; in [6] it was 4.08. Also, in series [5], the CC50 at 72 h was found to be 174 µM.
As to `COc1ccc(/C=C/C(=O)OCCCCCCCCCOc2cc(Cl)ccc2Oc2ccc(Cl)cc2Cl)cc1OC`, the concentration for a half-maximal effect (EC50) in the series on Leishmania panamensis [2] was 48.5 µM; in the series with Trypanosoma cruzi [3] (read-out: EC50), 33 µM. The figures for the selectivity ratio in series [4] and in series [6] were 3.24 and 2.21, respectively. For the same molecule, the CC50 at 72 h in series [5] was 107 µM.
In the case of `COc1ccc(/C=C/C(=O)c2ccc(OCCCOc3cc(Cl)ccc3Oc3ccc(Cl)cc3Cl)cc2)cc1OC`, the EC50 in the series on Leishmania panamensis [7] stood at 9.4 µg/mL (≈ 15.3 µM). In series [8], the CC50 was above 200 µg/mL.
On to `CC1(C)C2CCC1(C)[C@H](OC(=O)/C=C/c1ccc(O)c(O)c1)C2` (some centres not stated), for which the IC50 in the series with Leishmania major was 48.8 µM.
For the molecule `CCCCCCCCOC(=O)/C=C/c1ccc(O)c(O)c1`, in the series with Leishmania panamensis [9], the EC50 was 0.67 µM.
Broadly, the MIC is the smallest concentration in the dilution series that meets the test's criterion for growth inhibition. Low readings indicate a more susceptible organism, high ones a less susceptible organism. As to `CC(C)CCOC(=O)/C=C/c1ccc(O)c(O)c1`, inhibition of growth against Trypanosoma brucei (MIC) required 0.31 µg/mL (≈ 1.24 µM).
On to `C[C@@H]1[C@H](O)[C@@H](C)/C=C/C=C/C=C/C=C/C=C/C=C/C=C/[C@H](O[C@@H]2O[C@H](C)[C@@H](O)[C@H](N)[C@@H]2O)C[C@@H]2O[C@](O)(C[C@@H](O)C[C@@H](O)[C@H](O)CC[C@@H](O)C[C@@H](O)CC(=O)O[C@H]1C)C[C@H](O)[C@H]2C(=O)O` [AMPHOTERICIN B], for which, in series [6], the selectivity ratio amounted to 842.
For `O=C(Cn1ccnc1[N+](=O)[O-])NCc1ccccc1` [BENZNIDAZOLE], it took 40.3 µM to reach a half-maximal effect in the series with Trypanosoma cruzi [3] (EC50). In addition, the selectivity ratio in [4] was 17.
Regarding `O=C(O)/C=C/c1ccc(O)c(O)c1` [CAFFEIC ACID], the EC50 with Leishmania panamensis [2] was 1100 µM; in the series with Trypanosoma cruzi [3] (read-out: EC50), 157 µM. In addition, the selectivity ratio is above 7.07 in [4] and above 1 in series [6]. Also, the CC50 at 72 h in series [5] worked out at 1110 µM.
As for `Oc1cc(Cl)ccc1Oc1ccc(Cl)cc1Cl` [TRICLOSAN], the EC50 with Trypanosoma cruzi [3] (read-out: EC50) was found to be 49 µM. Also, the selectivity ratio stood at […] in series [4] and […] in series [6]. Further, the CC50 at 72 h in [5] stood at […].

Values taken from ChEMBL document CHEMBL4130489, “Triclosan-caffeic acid hybrids: Synthesis, leishmanicidal, trypanocidal and cytotoxic activities” (Eur J Med Chem, 2017).
